Source: US6284768A, “Src family SH2 domain inhibitors” (Boehringer Ingelheim Pharmaceuticals, Inc., priority 1999, dated 2001)
Read-outs that look alike come from different tables or passages of the source.

What was measured:
[1] = target: T1, p56lck GST-SH2 (lck SH2 domain) (Homo sapiens, UniProt P06239); assay: Receptor-ligand equilibrium binding constants by surface plasmon resonance (biosensor), lck SH2 domain
T1 construct: GST (N)

[2] = test system: Inter-leukin 2 (IL-2) production by activated Human Primary T Lymphocytes; assay: Primary T cell assay: inhibition of IL-2 production by activated human primary CD4 positive T lymphocytes; format: cell-based; conditions: Table 5, mean IC50 value, CD4 positive T cells activated with anti-CD3/anti-CD28, IL-2 by ELISA, read-out: IC50 (blocking IL-2 production)
Procedure: Summary of Primary T Cell Assay.
Inhibitors of the lck SH2 domain were assayed for their ability to block Inter-leukin 2 (IL-2) production by activated Human Primary T Lymphocytes. Peripheral blood mononuclear cells were isolated from whole blood by centrifugation in ficoll-Pague partitioning medium. CD4 positive cells were purified using negative selection. […] The compounds, at the appropriate dilutions, were added, and the cells were incubated for 60 minutes at 37° C. The CD4 positive T cells were then activated by the addition of anti-CD3 (60 ng/mL), anti CD28 (500 ng/mL) and goat anti mouse IgG coated beads, and incubated overnight at 37° C. The cells were pelleted, and the supernatents assayed for IL-2 by ELISA.
As SH2 domain containing proteins are intracellular, any therapeutic agent must be able to cross biological membranes. […] These characteristics may be quantified by observing inhibition in IL-2 production in human blood CD4 positive T-lymphocytes after T cell receptor and CD28 cross-linking.

[3] = Table 1, compounds of formula (II)

T1 sequence (P06239 127-224 limits assumed): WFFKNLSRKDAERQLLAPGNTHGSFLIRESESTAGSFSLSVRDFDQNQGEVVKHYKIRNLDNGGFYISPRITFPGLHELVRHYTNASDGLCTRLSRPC

Row | Compound | Kd [1, 3] | IC50 ([2]; Homo sapiens, CD4 positive) | also measured
1 | CCc1ccc(Cn2ccc(C)c(NC(=O)C(Cc3ccc(C(C)(C)C(=O)O)cc3)NC(=O)Cc3ccc4ccccc4c3)c2=O)cc1 (stereo not shown) [Compound 150] | 4.6 µM | 60 µM | 
2 | CCC(C(=O)N[C@@H](Cc1ccc(C(C)(C)C(=O)O)cc1)C(=O)Nc1c(C)ccn(Cc2ccc(OC)cc2)c1=O)c1ccc2ccccc2c1 (stereo partly shown) [Compound 109] | 0.33 µM | 78 µM | 
3 | CCCCCCn1cc(-c2ccccc2)c(C)c(NC(=O)C(Cc2ccc(C(C)(C)C(=O)O)cc2)NC(=O)Cc2ccc3ccccc3c2)c1=O (stereo not shown) [Compound 231] | < 8 µM | 57 µM | 
4 | CCOc1ccc(Cn2ccc(C)c(NC(=O)C(Cc3ccc(C(C)(C)C(=O)O)cc3)NC(=O)Cc3cccc4ccccc34)c2=O)cc1 (stereo not shown) [Compound 140] | 0.63 µM | 82 µM | 
5 | CCCCCCn1ccc(C)c(NC(=O)C(Cc2ccc(C(C)(C)C(=O)O)cc2)NC(=O)Cc2c(F)c(F)c(F)c(F)c2F)c1=O (stereo not shown) [Compound 142] | 1.3 µM | 94 µM | 
6 | COc1ccc(Cn2ccc(C)c(NC(=O)C(Cc3ccc(C(C)(C)C(=O)O)cc3)NC(=O)Cc3cccc4ccccc34)c2=O)cc1 (stereo not shown) [Compound 216] | 190 µM |  | IC50 [2]: 193 µM
7 | CCCCCCn1ccc(C)c(NC(=O)C(Cc2ccc(C(C)(C)C(=O)O)cc2)NC(=O)Cc2ccc3ccccc3c2)c1=O (stereo not shown) [Compound 137] | 0.51 µM | 75 µM | 
8 | COc1ccc(Cn2c(C)cc(C)c(NC(=O)[C@H](Cc3ccc(C(C)(C)C(=O)O)cc3)NC(=O)Cc3ccc4ccccc4c3)c2=O)cc1 [Compound 219] | 2.2 µM | 70 µM | 
9 | COc1ccc(Cn2ncc(C)c(NC(=O)C(Cc3ccc(C(C)(C)C(=O)O)cc3)NC(=O)Cc3ccc4ccccc4c3)c2=O)cc1 (racemic) [Compound 242, 4-[2'-(R,S)-(2""-Naphthylacetyl)amino-3'-[4"-(1'"-carboxy-1'"-methyl)ethyl]benzene]propanoylamino-2-(4-methoxybenzyl)-5-methyl-3-pyridazinone] |  | 60 µM | Kd ([1]; Table 2, compounds of formula (III)): 0.53 µM
10 | Cc1ccn(CCc2ccccc2)c(=O)c1NC(=O)C(Cc1ccc(C(C)(C)C(=O)O)cc1)NC(=O)Cc1ccc2ccccc2c1 (stereo not shown) [Compound 200] | 2.2 µM | 87 µM | 
11 | Cc1ccn(Cc2ccccc2Oc2ccccc2)c(=O)c1NC(=O)C(Cc1ccc(C(C)(C)C(=O)O)cc1)NC(=O)Cc1ccc2ccccc2c1 (stereo not shown) [Compound 156] | 4 µM | 46 µM | 
12 | COc1ccc(Cn2ccc(C)c(NC(=O)C(Cc3ccc(C(C)(C)C(=O)O)cc3)NC(=O)Cc3ccc(Oc4ccccc4)cc3)c2=O)cc1 (stereo not shown) [Compound 172] | 0.66 µM | 96 µM | 
13 | CCCCCCn1ccc(C)c(NC(=O)C(Cc2ccc(C(C)(C)C(=O)O)cc2)NC(=O)Cc2ccc(C(F)(F)F)cc2)c1=O (stereo not shown) [Compound 209] | 0.19 µM | 92 µM | 
14 | COc1ccc(Cn2ccc(C)c(NC(=O)[C@H](Cc3ccc(C(C)(C)C(=O)O)cc3)NC(=O)[C@@H](C)c3ccc4ccccc4c3)c2=O)cc1 [Compound 46] | 2.3 µM | 58 µM | 
15 | Cc1ccn(CC2CCCCC2)c(=O)c1NC(=O)C(Cc1ccc(C(C)(C)C(=O)O)cc1)NC(=O)Cc1cccc2ccccc12 (stereo not shown) [Compound 194] | 2.3 µM | 84 µM | 
16 | Cc1ccn(Cc2ccc(C(F)(F)F)cn2)c(=O)c1NC(=O)[C@H](Cc1ccc(C(C)(C)C(=O)O)cc1)NC(=O)Cc1ccc2ccccc2c1 [Compound 128] | 1.6 µM | 207 µM | 
17 | CCC(CC)(C(=O)NC(Cc1ccc(C2(C(=O)O)CCCC2)cc1)C(=O)Nc1c(C)ccn(Cc2ccc(OC)cc2)c1=O)c1ccc2ccccc2c1 (stereo not shown) [Compound 125] | > 15 µM | 29 µM | 
18 | COc1ccc(Cn2ccc(C)c(NC(=O)[C@H](Cc3ccc(C(C)(C)C(=O)O)cc3)NC(=O)N(C)c3cccc4ccccc34)c2=O)cc1 [Compound 133] | 0.78 µM | 112 µM | 
19 | CCC(CC)(C(=O)O)c1ccc(C[C@H](NC(=O)Cc2ccc3ccccc3c2)C(=O)Nc2c(C)ccn(Cc3ccc(OC)cc3)c2=O)cc1 [Compound 106] | 0.47 µM | 82 µM | 
20 | COc1ccc(Cn2ccc(C)c(NC(=O)[C@H](Cc3ccc(N(O)C(=O)C(=O)O)cc3)NC(=O)Cc3cccc4ccccc34)c2=O)cc1 [Compound 1, 3-[2'-(S)-(1'"-Naphthylacetyl)amino-3'-[4"-(N-oxalyl, N-hydroxy)amino]benzene]propanoylamino-1-(4-methoxybenzyl)-4-methyl-2-pyridone] | 2.3 µM |  | 
21 | Cc1ccn(C/C=C/c2ccccc2)c(=O)c1NC(=O)C(Cc1ccc(C(C)(C)C(=O)O)cc1)NC(=O)C(C)(C)c1ccc2ccccc2c1 (stereo not shown) [Compound 177] | 3.2 µM |  | 
22 | COc1ccc(Cn2ccc(C)c(NC(=O)[C@H](Cc3ccc(NC(=O)C(=O)O)cc3)NC(=O)Cc3ccccc3)c2=O)cc1 [Compound 102] | 1.9 µM |  | 
23 | COc1ccc(Cn2ccc(C)c(NC(=O)[C@H](Cc3ccc(NC(=O)C(=O)O)cc3)NC(=O)Cc3cccc([N+](=O)[O-])c3)c2=O)cc1 [Compound 105] | 0.82 µM |  | 

Row | Compound | Kd [1, 3] | IC50 ([2]; Homo sapiens, CD4 positive) | also measured
24 | COc1ccc(C(C)n2ccc(C)c(NC(=O)[C@H](Cc3ccc(CC(=O)O)cc3)NC(=O)C(C)(C)C)c2=O)cc1 (stereo partly shown) [Compound 82] | 32 µM |  | 
25 | COc1ccc(Cn2cc(/C=C/C(N)=O)c(C)c(NC(=O)C(Cc3ccc(C(C)(C)C(=O)O)cc3)NC(=O)Cc3ccc4ccccc4c3)c2=O)cc1 (racemic) [Compound 221, 3-[2'-(R,S)-(2""-Naphthylacetyl)amino-3'-[4"-(1'"-carboxy-1'"-methyl)ethyl]benzene]propanoylamino-5-acrylamido-1-(4-methoxybenzyl)-4-methyl-2-pyridone] | 0.17 µM |  | 
26 | COc1ccc(Cn2ccc(C)c(NC(=O)[C@H](Cc3ccc(NC(=O)C(=O)O)cc3)NC(=O)Cc3ccc(N(C)C)cc3)c2=O)cc1 [Compound 22] | 1.8 µM |  | 
27 | COc1ccc(Cn2cc(Br)c(C)c(NC(=O)C(Cc3ccc(C(C)(C)C(=O)O)cc3)NC(=O)C(C)(C)c3ccc(Br)cc3)c2=O)cc1 (stereo not shown) [Compound 122] | 5.3 µM |  | 
28 | Cc1ccn(CC2CCCCC2)c(=O)c1NC(=O)[C@H](Cc1ccc(CC(=O)O)cc1)NC(=O)C(C)(C)C [Compound 67] | 64 µM |  | 
29 | COc1ccc(Cn2ccc(C)c(NC(=O)[C@H](Cc3ccc(C(C)(C)C(=O)O)cc3)NC(=O)C(C)(C)c3ccc4ccccc4c3)c2=O)cc1 [Compound 107] |  |  | IC50 ([2]; Homo sapiens): 48 µM
30 | COc1ccc(Cn2ccc(C)c(NC(=O)[C@H](Cc3ccc(CC(=O)O)cc3)NC(=O)C(C)C)c2=O)cc1 [Compound 75] | 6.7 µM |  | 
31 | CCCCCCn1ccc(C)c(NC(=O)C(Cc2ccc(C(C)(C)C(=O)O)cc2)NC(=O)Cc2ccccc2OC)c1=O (stereo not shown) [Compound 207] | 1.7 µM |  | 
32 | Cc1ccn(Cc2ccc(C(C)C)cc2)c(=O)c1NC(=O)[C@H](Cc1ccc(C(C)(C)C(=O)O)cc1)NC(=O)Cc1c[nH]c2ccccc12 [Compound 100] | 1.5 µM |  | 
33 | COc1ccc(Cn2cc(Br)c(C)c(NC(=O)[C@H](Cc3ccc(C(C)(C)C(=O)O)cc3)NC(=O)C(C)(C)c3ccc(C(F)(F)F)cc3)c2=O)cc1 [Compound 227] | 0.37 µM |  | 
34 | Cc1ccn(Cc2ccc(OC(F)(F)F)cc2)c(=O)c1NC(=O)[C@H](Cc1ccc(CC(=O)O)cc1)NC(=O)Cc1cccc2ccccc12 [Compound 53, 3-[2'-(S)-(1'"-Naphthyl)acetlyamino-3'-(4"-carboxymethyl)benzene]propanoylamino-1-(4-trifluoromethoxybenzyl)-4-methyl-2-pyridone] | 12.7 µM |  | 
35 | COc1ccc(Cn2ccc(C)c(NC(=O)[C@H](Cc3ccc(N(O)C(=O)C(=O)O)cc3)NC(=O)Cc3ccc(N(C)C)cc3)c2=O)cc1 [Compound 26] | 4.3 µM |  | 
36 | CCCCCn1ccc(C)c(NC(=O)[C@H](Cc2ccc(CC(=O)O)cc2)NC(=O)C(C)(C)C)c1=O [Compound 69] | 89 µM |  | 
37 | CCCCCn1ccc(C)c(NC(=O)C(Cc2ccc(C(C)(C)C(=O)O)cc2)NC(=O)Cc2cccc3ccccc23)c1=O (stereo not shown) [Compound 191] | 3.1 µM |  | 
38 | COc1ccc(Cn2ccc(C)c(NC(=O)[C@H](Cc3ccc(CC(=O)O)cc3)NC(=O)Cc3cccc(OC(C)(C)C)c3)c2=O)cc1 [Compound 164] | 1.6 µM |  | 
39 | COc1ccc(Cn2ccc(C)c(NC(=O)[C@H](Cc3ccc(C(C)(C)C(=O)O)cc3)NC(=O)Cc3ccccc3)c2=O)cc1 [Compound 120] | 0.43 µM |  | 
40 | COc1ccc(Cn2ccc(C)c(NC(=O)C(Cc3ccc(C(C)(C)C(=O)O)cc3)NC(=O)C(C)(C)C)c2=O)cc1 (stereo not shown) [Compound 171] | 4.3 µM |  | 
41 | COc1ccc(Cn2ccc(C)c(NC(=O)[C@H](Cc3ccc(CC(=O)O)cc3)NC(=O)C(C)(C)c3ccccc3)c2=O)cc1 [Compound 76] | 8.6 µM |  | 
42 | COc1ccc(Cn2ccc(C)c(NC(=O)[C@H](Cc3ccc(NC(=O)C(=O)O)cc3)NC(=O)Cc3ccc(C(C)C)cc3)c2=O)cc1 [Compound 43] | 1.9 µM |  | 
43 | CCCCCCn1ccc(C)c(NC(=O)C(Cc2ccc(C(C)(C)C(=O)O)cc2)NC(=O)Cc2cccs2)c1=O (stereo not shown) [Compound 206] | 0.89 µM |  | 
44 | COc1ccc(Cn2ccc(C)c(NC(=O)[C@H](Cc3ccc(CC(=O)O)cc3)NC(=O)Cc3cc4ccccc4cc3C)c2=O)cc1 [Compound 60] | 1.9 µM |  | 
45 | COc1ccc(C(C)n2ccc(C)c(NC(=O)[C@H](Cc3ccc(CC(=O)O)cc3)NC(=O)Cc3cccc4ccccc34)c2=O)cc1 (stereo partly shown) [Compound 83] | 2.1 µM |  | 
